The values below come from patent US20220370464A1, “COMPOSITIONS AND METHODS OF TREATING OR PREVENTING OCULAR INFECTIONS WITH FILOCICLOVIR” (Microbiotix, Inc., priority 2019, published 2022).

Read-outs that look alike come from different tables or passages of the source.

One data set concerns AdV6. In words: Therapeutic efficacy against intravenous AdV6 in immunosuppressed male Syrian hamsters. Particulars: for serum transaminase (ALT) levels (FIG. 7) / virus burden in the liver (FIG. 8): 5 days post challenge; for mortality / survival (FIG. 6A): AdV6-infected hamsters. Here is the method: Four dose levels were tested: 10, 30, 60 and 100 mg/kg p.o. q.d. The highest dose was determined based on rat toxicology data.
All hamsters were immunosuppressed using cyclophosphamide (CP). CP was administered intraperitoneally at a dose of 140 mg/kg, and then twice weekly at a dose of 100 mg/kg.
Filociclovir, in powdered form, was suspended in 0.4% carboxymethyl cellulose (Sigma C5678, Lot #SLBS7273) at 1, 3, 6, and 10 mg/ml and sonicated to visual homogeneity and aliquots stored at 4° C. Aliquots were allowed to equilibrate to room temperature before dosing. Hamsters weighing approximately 100 g were dosed with a 1 ml volume of the appropriate suspension for the 10, 30, 60, and 100 mg/kg dose levels.
The hamsters were divided into 8 groups, 15 hamsters/group, (with the exception of Group 2, which had only 5 hamsters; see Table 3), immunosuppressed, and then injected i.v. with vehicle (Groups 1-2) or 2×10^10 PFU/kg of AdV6 (Groups […]). Groups 1 and 3 received drug vehicle (p.o. q.d.), Group 4 received 10 mg/kg filociclovir (p.o. q.d.), Group 5 received 30 mg/kg filociclovir (p.o. q.d.), Group 6 received 60 mg/kg filociclovir (p.o. q.d.), Groups 2 and 7 received 100 mg/kg filociclovir (p.o. q.d.), and Group 8 received cidofovir (20 mg/kg, 3 times weekly). For all groups, drug administration started 1 day before challenge, and continued according to the schedule above for the duration of the study.
The body weights and any signs of morbidity of the animals were recorded daily. At 5 days post challenge, 5 hamsters (designated at the start of the experiment) from each group (with the exception of Group 2) were sacrificed, and gross pathological observation was performed. Serum and liver samples were collected and the virus burden in liver was determined by a TCID50 assay, and the serum was analyzed for transaminase levels. The remaining 10 hamsters were sacrificed at 14 days post challenge. Hamsters that became visually moribund before Day 14 were sacrificed as needed. In addition to the hamsters observed to be moribund, all hamsters that lost more than 20% of their original body weight were also sacrificed. For the hamsters sacrificed at the conclusion of the experiment and those sacrificed as moribund, serum and liver tissues were collected and banked for possible determination of serum transaminase levels and virus burden in the liver. Liver tissue was preserved in formalin for possible histopathological examination.
As such, there were two endpoints for the study: One, collected from ten animals, was survival and body weight gain/loss (with the option of assaying virus burden in the liver and serum transaminase levels). The other, collected from 5 animals for the Day 5 time point, was virus burden in the liver and serum transaminase levels.

In data set [1] the test system is AdV5. In words: Plaque reduction antiviral IC50 assay in A549, AdV5. It counts as cell-based, adenovirus 5. Particulars: Human mastadenovirus C. How it is done: (§1) The effectiveness of filociclovir to inhibit a number of adenovirus strains associated with conjunctivitis were tested in an in vitro assay. To determine the in vitro IC50 concentrations, i.e., the concentration of filociclovir that inhibits adenovirus plaque formation by 50%, filociclovir and cidofovir (CDV) were tested against a panel of 7 ocular types of adenovirus.
(§2) 42 A549 24-well multiplates (1 per each drug and each virus strain) were prepared. 7 adenovirus serotypes were tested at a time. Virus dilutions from known titer of stock viruses (approx. 100 PFU/0.1 ml) were prepared with AdV3 L, AdV4 H, AdV5 M, AdV7a J, AdV8 E, AdV 19/64 K, and AdV37 ATCC. 0.1 ml (containing approx. 100 PFU) of each of the 7 viruses were plated onto all 24 wells of an A549 multiplate and incubated at 37° C. in a 5% CO2 water-vapor atmosphere for 3 hours.
(§3) Dilutions of filociclovir and cidofovir were prepared at 400, 40, 4.0, 0.4, 0.04, and 0.004 μM in 2× nutrient tissue culture media, following the dilution protocol: 7.5 ml of each of filociclovir and cidofovir dilution was added to a tube and 22.5 ml of methylcellulose in outgrowth medium (OG) was then added to each tube. 1 ml of each filociclovir and cidofovir dilutions was added to an additional 15 ml tube and 3 ml of OG was added to each tube. This was the overlay for the Adv8 plates. Normal methylcellulose overlay medium without any drug was used for the control wells for each plate.
(§4) For each virus plate, 3 wells were overlaid with each of the 6 final filociclovir and cidofovir concentrations (100, 10, 1.0, 0.1, 0.01, and 0.001 μM) and 6 wells with the control media. Plates were incubated at 37° C. in a 5% CO2 water-vapor atmosphere until plaques were visible. When plaques became visible, plates were stained with gentian violet and plaques were counted at 25λ using a dissecting microscope. The IC50 concentrations were determined from Fitted Line Plot regression analysis using Minitab. All assays were performed in triplicate.

The subject of the next data set is AdV7a. Put plainly: Plaque reduction antiviral IC50 assay in A549, AdV7a. As to conditions: unidentified adenovirus. It counts as cell-based, adenovirus 7a. Here is the method: as §1, §2, §3, §4
Data set [2] relates to panel of ocular adenovirus types (Ad3, Ad4, Ad5, Ad7a, Ad8, Ad19/64, and Ad37). Put plainly: Plaque reduction antiviral IC50 assay, whole panel of ocular adenovirus types. Particulars: unidentified adenovirus. It counts as cell-based, adenovirus Species B, C, D, and E. Here is the method:
as §1, §2, §3, §4

In another data set the test system is ocular AdV infections. Particulars: literature, cited from earlier work.
Data set [3] concerns AdV5. Put plainly: Immunofluorescence assay of AdV5-infected A549 cells (DBP and hexon staining). Type of data set: cell-based, adenovirus 5. As to conditions: 27 hours post-infection. How it is done:
Human A549 cells on glass coverslips in 6-well plates were infected at an MOI of 5 PFU/cell with either AdV5 or AdV6 or were mock-infected. After 1 hour, filociclovir was added to a final concentration of 40, 10, 4, or 0 μM. At 27 hours post-infection, the A549 cells were fixed in paraformaldehyde (3.7% in PBS) and permeabilized with methanol. Cells were stained for the Adenovirus DNA-binding protein (DBP; green staining in images) and adenovirus hexon (red staining in images). DBP staining will be […] and uniform during early AdV infection (prior to AdV DNA replication). DBP associates with replication centers as the infection progresses. The replication centers are initially small “dots” (each dot results from one incoming AdV genome). The replication centers will expand and “multiply” as DNA replication takes place. The nuclei become enlarged and misshapen as infection progresses. AdV hexon, the most abundant component of the AdV viral capsid, is not expressed until after DNA replication is taking place and is therefore considered to be a “late” AdV protein.

The mark [4] stands for this setting: read-out: mean IC50 concentrations across the panel (upper bound).
The mark [5] stands for this setting: read-out: range of mean IC50 concentrations across the panel.

Take `Nc1ccn(C[C@@H](CO)OCP(=O)(O)O)c(=O)n1` [CDV, cidofovir, reference compound]: in the data set with AdV6 (20 mg/kg i.p. 3x weekly), the “serum transaminase (ALT) levels (FIG. 7)” value is “none of the filociclovir- or CDV-treated animals had elevated serum transaminase levels”. Further, the “virus burden in the liver (FIG. 8)” value in the data set with AdV6 (20 mg/kg i.p. 3x weekly) is recorded as “very low to nonquantifiable levels”. Moreover, the IC50 is 30.3 µM with AdV5 [1] (read-out: Mean IC50); 38.8 µM in the data set with AdV5 [1] (read-out: Median IC50); 1.81 µM with AdV7a (read-out: Mean IC50); 0.617 µM in the data set with AdV7a (read-out: Median IC50); under 31 µM in data set [2] (setting [4]); 0.487 to 30.3 µM in data set [2] (setting [5]). Moreover, the ocular toxicity entry in the data set with ocular AdV infections (even at low doses) was “substantial ocular toxicity”. In addition, in the data set with ocular AdV infections (ocular AdV infections), the “improvement in the symptoms or course of the disease” value was “not exhibited a statistically significant improvement”.

`Nc1nc2c(ncn2/C=C2/CC2(CO)CO)c(=O)[nH]1` [Filociclovir, 2-amino-9-{(Z)-[2,2-bis(hydroxymethyl)cyclopropylidene]methyl}-3,9-dihydro-6H-purin-6-one]: the hexon-positive cells result in the data set on AdV5 [3] (AdV5, A549, 4 μM) was “Some hexon-positive cells”; in the data set on AdV5 [3] (AdV5, A549, 10 μM), “extremely few hexon-positive cells”; in the data set on AdV5 [3] (AdV5, A549, 40 μM), “No hexon-positive cells”. In addition, the “body weight loss (FIG. 6B)” value in the data set with AdV6 (10 mg/kg p.o. q.d.) and in the data set with AdV6 (30 mg/kg p.o. q.d.) was “reversed” each time. In addition, the “mortality / survival (FIG. 6A)” value in the data set on AdV6 (10 mg/kg p.o. q.d.) and in the data set with AdV6 (30 mg/kg p.o. q.d.) was “prevented mortality” each time. Also, the “toxicity for AdV6-infected hamsters” value with AdV6 (60 mg/kg p.o. q.d.) and with AdV6 (100 mg/kg p.o. q.d.) was “toxic” each time. Also, the “virus burden in the liver (FIG. 8)” value with AdV6 (10 mg/kg p.o. q.d.) is given as “one animal in the AdV6+10 mg/kg filociclovir group with a very low liver virus burden”; in the data set with AdV6 (30 mg/kg p.o. q.d.) it was “nondetectable level”. Besides, the “serum transaminase (ALT) levels (FIG. 7)” value with AdV6 (filociclovir-treated animals) is “none of the filociclovir- or CDV-treated animals had elevated serum transaminase levels”. In addition, the “necropsy finding at day 5 sacrifice” value with AdV6 (AdV6+60 mg/kg p.o. q.d.) and in the data set with AdV6 (AdV6+100 mg/kg p.o. q.d.) was “extensive kidney pathology” each time. For the same compound, the IC50 with AdV5 [1] (read-out: Mean IC50) was 4.68 µM; in the data set on AdV5 [1] (read-out: Median IC50), 4.62 µM; in the data set on AdV7a (read-out: Mean IC50) it was 2.12 µM; in the data set on AdV7a (read-out: Median IC50) it was 0.769 µM; in data set [2] (setting [4]), under 5 µM; in data set [2] (setting [5]), 0.496 to 4.68 µM.
